Data from patent US20100260852A1, “LAXATIVE AGENT” (priority 2007, published 2010).

Assays:
Type in all cases: in vivo, rat
Conditions in all cases: 300 mg/Kg p.o.
[1] = tested on: male rats (SPF); assay: Ethanol-inducted gastric mucosa damage test
Method: (§1) administration route: oral administration applied dose: 5 mL/Kg administration means: administered by using a disposable injection cylinder and a sonde for oral administration administration time: administered 60 minutes before the preparation of a gastric mucosa damaged model
(§2) After about 24 hours of fasting, the rats were put into a stress cage (manufactured by Natsume Seisakusho Co., Ltd.), and the cage was immersed in a water tank at 23° C. 6 hours after that, the blood was removed from the rats to kill them under anesthesia with pentobarbital sodium (40 mg/Kg, i.p.), and the stomachs of these rats were extracted. 10 mL of a 1% formalin solution was injected into the stomachs to immerse them in the solution for 10 minutes or more. The stomachs were cut open along the greater curvature to measure the length (mm) of a damage by a stereomicroscope. The total of damages of each rat was taken as the damage coefficient of the rat.
An ethanol-inducted gastric mucosa damage test was conducted on male rats (SPF) by using the composite magnesium oxide particles obtained in Example 5. For comparison, magnesium oxide manufactured by Kyowa Chemical Industry Co., Ltd. was used.
After about 24 hours of fasting, 1 mL of ethanol (99.5%) was orally administered to each rat. […]

[2] = tested on: male rats (SPF); assay: Water immersion stress gastric mucosa damage test
Method: A water immersion stress gastric mucosa damage test was conducted on male rats (SPF) using the composite magnesium oxide particles obtained in Example 5. For comparison, magnesium oxide manufactured by Kyowa Chemical Industry Co., Ltd. was used.
as §1, §2

[3] = tested on: male rats (SPF); assay: Indometacin-inducted gastric mucosa damage test
Method: as §1, §2
An indometacin-inducted gastric mucosa damage test was conducted on male rats (SPF) by using the composite magnesium oxide particles obtained in Example 5. For comparison, magnesium oxide manufactured by Kyowa Chemical Industry Co., Ltd. was used.
After about 24 hours of fasting, 30 mg/Kg of indometacin (15 mg/mL: suspended by using a 0.5% methylcellulose aqueous solution) was subcutaneously administered to each rat. […]

[4] = tested on: male rats (SPF); assay: Gastric ulceration test (acetic acid ulceration models)
Method: The influence of the composite magnesium oxide particles obtained in Example 3 upon gastric ulceration was investigated using male rats (SPF). For comparison, magnesium oxide particles (MgO) manufactured by Kyowa Chemical Industry Co., Ltd. were used. The rats were abdominally operated under anesthesia with pentobarbital sodium (10 mg/Kg, i.p.), 30 μL of 20% acetic acid was injected into the submucosal coat at the boundary between the body of stomach and the vestibular region of the pyloric from the serosal side to prepare acetic acid ulceration models. […] On the day following the last administration, the stomachs of the models were extracted under anesthesia with pentobarbital sodium (40 mg/Kg, i.p.) to measure the long diameter and short diameter (mm) of an ulcer.

[5] = tested on: male rats (SPF); assay: Aspirin-inducted gastric mucosa damage test
Method: as §1, §2
An aspirin-inducted gastric mucosa damage test was conducted on male rats (SPF) by using the composite magnesium oxide particles obtained in Example 5. For comparison, magnesium oxide manufactured by Kyowa Chemical Industry Co., Ltd. was used.
After about 24 hours of fasting, 125 mg/Kg of aspirin (62.5 mg/mL: suspended by using a methylcellulose aqueous solution) was orally administered to each rat twice every 2 hours. […]

For `[O]=[Mg]` [Comparative example, magnesium oxide], the “Damage coefficient (Lesions)” value ([1]; 1 mL ethanol (99.5%) orally, 1 hour, 6 rats) was 25.5 ± 8.9 mm, the Inhibition ratio ([1]; ethanol-inducted) was 48% and the “Damage coefficient (Lesions)” value ([2]; 60 min before, water immersion stress 23° C., 6 hours, 6 rats) was 18.1 ± 3.6 mm. For the same compound, the Inhibition ratio ([2]; water immersion stress) was 56%, the “Damage coefficient (Lesions)” value ([3]; indometacin 30 mg/Kg s.c., 5 hours, 6 rats) was 0.0 ± 0.0 mm and the Inhibition ratio ([3]; indometacin-inducted) was 100%. The “Inhibition ratio of gastric lesion” value [4] was 19%, the “Damage coefficient (Lesions area)” value ([4]; once each day for 10 days, 6 rats) was 5.2 ± 1.0 mm^2 and the “Damage coefficient (Lesions)” value ([5]; aspirin 125 mg/Kg orally twice, 4 hours after second, 6 rats) was 27.8 ± 4.3 mm. It also gave an Inhibition ratio ([5]; aspirin-inducted) of 43%.
